From ChEMBL document CHEMBL4196089, “Design, synthesis, biological evaluation and in vivo testing of dual phosphodiesterase 5 (PDE5) and histone deacetylase 6 (HDAC6)-selective inhibitors for the treatment of Alzheimer's disease” (Eur J Med Chem, 2018)
pIC50: −log10 of the molar value.

Legend:
[1] = molecular target: Histone deacetylase 1 (Homo sapiens, UniProt Q13547); test: Inhibition of full length human recombinant C-terminal FLAG/His-tagged HDAC1 expressed in baculovirus infected sf9 cells using fluorogenic HDAC substrate 3 after 30 mins by fluorescence assay
[2] = cells; conditions: Homo sapiens, SH-SY5Y, 2 h, read-out: FC
[3] = cells; conditions: Homo sapiens, SH-SY5Y, 2 h, read-out: FC; remark: listed apart in the source
[4] = cells; conditions: Homo sapiens, SH-SY5Y, 2 h, read-out: FC; remark: listed apart in the source
[5] = molecular target: cGMP-specific 3',5'-cyclic phosphodiesterase (Homo sapiens, UniProt O76074); test: Inhibition of full length human recombinant N-terminal GST-tagged PDE5A1 expressed in baculovirus infected sf9 cells using cGMP as substrate after 30 mins by fluorescence assay
[6] = molecular target: Histone deacetylase 2 (Homo sapiens, UniProt Q92769); test: Inhibition of full length human recombinant C-terminal His-tagged HDAC2 expressed in baculovirus infected sf9 cells using fluorogenic HDAC substrate 3 after 30 mins by fluorescence assay
[7] = molecular target: T1, Protein deacetylase HDAC6 (Homo sapiens, UniProt Q9UBN7); test: Inhibition of full length human recombinant N-terminal GST-tagged HDAC6 expressed in baculovirus infected sf9 cells using fluorogenic HDAC substrate 3 after 30 mins by fluorescence assay
T1 sequence (Q9UBN7 whole entry): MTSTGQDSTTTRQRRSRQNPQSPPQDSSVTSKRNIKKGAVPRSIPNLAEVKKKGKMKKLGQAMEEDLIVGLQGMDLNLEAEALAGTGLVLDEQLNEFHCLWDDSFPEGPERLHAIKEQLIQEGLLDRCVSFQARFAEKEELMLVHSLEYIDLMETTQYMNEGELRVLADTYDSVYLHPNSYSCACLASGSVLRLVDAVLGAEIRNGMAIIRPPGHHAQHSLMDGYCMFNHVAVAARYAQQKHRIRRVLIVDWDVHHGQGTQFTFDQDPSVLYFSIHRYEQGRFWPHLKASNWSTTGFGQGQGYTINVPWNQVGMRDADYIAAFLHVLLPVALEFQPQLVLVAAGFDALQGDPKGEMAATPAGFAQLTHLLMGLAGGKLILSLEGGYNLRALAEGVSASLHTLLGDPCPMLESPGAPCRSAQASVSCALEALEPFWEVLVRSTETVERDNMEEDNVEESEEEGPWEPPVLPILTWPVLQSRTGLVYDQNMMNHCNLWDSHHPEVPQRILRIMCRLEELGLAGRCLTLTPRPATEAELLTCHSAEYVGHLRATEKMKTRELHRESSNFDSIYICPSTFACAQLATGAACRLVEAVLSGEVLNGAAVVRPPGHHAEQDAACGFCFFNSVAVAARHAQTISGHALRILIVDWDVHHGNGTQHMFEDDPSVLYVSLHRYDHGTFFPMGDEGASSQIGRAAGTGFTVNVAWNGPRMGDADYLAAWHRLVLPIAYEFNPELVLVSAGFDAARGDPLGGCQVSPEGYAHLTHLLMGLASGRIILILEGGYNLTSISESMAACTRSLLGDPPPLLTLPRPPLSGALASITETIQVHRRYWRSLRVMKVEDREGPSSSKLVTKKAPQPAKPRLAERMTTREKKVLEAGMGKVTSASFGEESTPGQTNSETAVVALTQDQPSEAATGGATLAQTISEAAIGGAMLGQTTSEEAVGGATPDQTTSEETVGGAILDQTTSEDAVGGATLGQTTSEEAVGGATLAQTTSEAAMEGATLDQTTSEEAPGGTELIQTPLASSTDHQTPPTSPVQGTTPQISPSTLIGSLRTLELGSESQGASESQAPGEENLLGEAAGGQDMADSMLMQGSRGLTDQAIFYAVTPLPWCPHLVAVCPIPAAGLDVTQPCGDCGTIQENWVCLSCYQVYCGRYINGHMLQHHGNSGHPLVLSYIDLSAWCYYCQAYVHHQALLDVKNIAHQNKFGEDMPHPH

[8] = Effective permeability of the compound at 10 uM after 18 hrs by LC-MS/MS based PAMPA; type: ADME; conditions: read-out: Peff
[9] = Cytotoxicity against human THLE2 cells after 72 hrs by vialight cell proliferation assay; type: cell-based, THLE-2; conditions: read-out: LC50

Sequence of Histone deacetylase 2 (Q92769 whole entry): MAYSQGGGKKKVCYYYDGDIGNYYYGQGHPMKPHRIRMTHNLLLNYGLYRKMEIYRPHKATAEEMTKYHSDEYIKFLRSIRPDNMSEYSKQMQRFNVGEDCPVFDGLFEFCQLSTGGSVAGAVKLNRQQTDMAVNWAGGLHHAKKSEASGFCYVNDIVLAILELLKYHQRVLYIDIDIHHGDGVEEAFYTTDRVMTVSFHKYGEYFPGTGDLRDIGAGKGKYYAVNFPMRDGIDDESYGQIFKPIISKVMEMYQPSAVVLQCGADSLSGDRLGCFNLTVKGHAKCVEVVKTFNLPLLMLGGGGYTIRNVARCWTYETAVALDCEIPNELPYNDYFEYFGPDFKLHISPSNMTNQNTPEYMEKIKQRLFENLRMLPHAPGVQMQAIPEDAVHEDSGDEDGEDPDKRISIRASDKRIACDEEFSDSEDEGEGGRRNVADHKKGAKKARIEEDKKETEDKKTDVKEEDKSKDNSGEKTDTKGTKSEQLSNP
Sequence of Histone deacetylase 1 (Q13547 whole entry): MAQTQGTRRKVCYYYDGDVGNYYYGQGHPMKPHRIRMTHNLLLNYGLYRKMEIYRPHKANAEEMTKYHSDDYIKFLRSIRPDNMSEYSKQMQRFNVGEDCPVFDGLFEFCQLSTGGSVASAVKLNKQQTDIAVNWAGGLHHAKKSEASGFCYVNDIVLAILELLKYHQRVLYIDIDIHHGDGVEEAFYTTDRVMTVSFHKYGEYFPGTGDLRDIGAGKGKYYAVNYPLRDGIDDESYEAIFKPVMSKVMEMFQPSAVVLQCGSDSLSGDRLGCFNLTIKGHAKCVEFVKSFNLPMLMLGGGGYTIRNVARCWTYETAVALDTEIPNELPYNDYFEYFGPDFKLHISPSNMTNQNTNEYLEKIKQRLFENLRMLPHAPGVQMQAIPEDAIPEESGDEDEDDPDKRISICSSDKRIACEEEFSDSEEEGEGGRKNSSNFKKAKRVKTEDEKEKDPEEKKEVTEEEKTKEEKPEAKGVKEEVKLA

With `CCCc1nc(C)c2c(=O)[nH]c(-c3cc(-c4ccc(C(=O)NO)cc4)ccc3OCC)nn12` as the molecule, how does the pIC50 [1] read?
The pIC50 was 5.39.

What about the fold induction at 1 µM [2] of the same molecule?
The fold induction at 1 µM was 2.8.

And the fold induction at 0.5 µM [3]?
Its fold induction at 0.5 µM is 2.3.

And the fold induction at 0.1 µM [4]?
The fold induction at 0.1 µM was 1.3.

What about the pIC50 [5] of the same molecule?
Its pIC50 is 8.70.

And the pIC50 [6]?
The pIC50 was less than 4.70.

And the pIC50 [7]?
Its pIC50 is 6.49.

What about the Papp at 18 h, 10 µM [8] of the same molecule?
The Papp at 18 h, 10 µM was 2.7 ×10⁻⁶ cm/s.

What about the CC50 at 72 h [9] of the same molecule?
Its CC50 at 72 h is greater than 100000 nM.
